In the METLIN SMRT retention time set (Domingo-Almenara et al. 2019) one finds RP-LC retention time data, which are given here for 58 molecules.

This data set is described as follows: gradient 5% acetonitrile 3 min, to 50% in 2 min, to 85% in 15 min, held 3 min, 100 µL/min. As to conditions: column: Zorbax Extend-C18 2.1 x 50 mm; eluents: water / acetonitrile, 0.1% formic acid. Put shortly:
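Pure standards were run in mixtures of ~100 molecules by HPLC coupled to a quadrupole time-of-flight mass spectrometer. The column was a Zorbax Extend-C18 (2.1 × 50 mm, 1.8 μm) at 100 μL/min, with water and acetonitrile each containing 0.1% formic acid, in positive and negative ionization mode. Dead and dwell volumes were 40 μL and 900 μL. Retention time was taken from computationally picked adduct peaks, each manually inspected, with data collected over 3 months.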
As to `COc1cc(C(=O)NC2C=CS(=O)(=O)C2)cc(OC)c1OC` (stereo not drawn), the RP-LC retention time stood at 615 s.
The figure for `Cn1cnc(S(=O)(=O)N2CCN(c3ccccn3)CC2)c1` is 536 s; for `COc1cc(-c2noc(C3CC(=O)N(c4cccc(Cl)c4)C3)n2)cc(OC)c1OC` (stereo not drawn) it is 1010 s.
The result for `O=C(N[C@H]1C[C@@H]2C[C@H]1CN2C(=O)c1ccc(OC(F)(F)F)cc1)c1cccs1` reads 842 s; that for `CCOc1ccccc1NC(=O)N1CCN(c2cc(C)nc(N3CCCC3)n2)CC1`, 692 s.
The result for `O=C(NC1CCN(c2cc(-c3ccc(Cl)cc3)[nH]n2)CC1)c1ccc2nc[nH]c2c1` reads 634 s; that for `COCCNC(=O)Cn1nc(-c2ccc(Cl)cc2)c2c(C)onc2c1=O`, 749 s; that for `O=C(CCn1nnc2cc(-c3noc(COc4ccc(Cl)cc4)n3)ccc21)N1CCOCC1`, 866 s.
For `Cc1ccc(C)c(N2CCN(c3ccnc(SCC(=O)Nc4cc(Cl)ccc4C)n3)CC2)c1`, the RP-LC retention time came to 952 s.
The result for `Cc1cc2c(cc1C)N(CC(=O)Nc1ccc(F)cc1F)C(=O)CC(c1cccs1)=N2` reads 1070 s; that for `O=C1CCCN1Cc1nc(-c2ccc(F)c(Cl)c2)no1`, 853 s.
The result for `O=C(CSc1ccc(N2CCCC(C(=O)NC3CC3)C2)nn1)Nc1ccccc1Br` (stereo not drawn) reads 664 s; that for `CCCN1C(=O)COc2ccc(-c3noc(C4CC(=O)N(c5ccc(OC)cc5)C4)n3)cc21` (stereo not drawn), 951 s; that for `CCc1noc(NC(C)=O)c1-c1ccc(OC)c(S(=O)(=O)Nc2cc(C)cc(C)c2)c1`, 852 s.
The figure for `Cc1sc(NC(=O)COc2ccc(Cl)cc2)nc1-c1ccc2c(c1)NC(=O)C(C)O2` (stereo not drawn) is 1020 s; for `O=C(Nc1ccccc1Cl)N1CCc2nc[nH]c2C1` it is 570 s.
`CCN(CC)S(=O)(=O)N1CCC(C(=O)Nc2cccc(CCc3nc4ccc(C)cc4[nH]3)c2)CC1`: the RP-LC retention time amounted to 708 s.
The figure for `O=C(Cc1ccccc1)Nc1c(-c2ccccc2)nc2ccccn12` is 574 s; for `Cc1ccc(-c2ccc(-n3nc(C)c(S(=O)(=O)N4CCC(C)CC4)c3C)nn2)cc1` it is 1260 s; for `Cn1cc(-c2cc3n(n2)CCCN3C(=O)CCC(=O)NCCCN2CCCCC2)c2ccccc21` it is 623 s.
The result for `CCn1c(=O)n(-c2ccc(F)cc2)c2nc(-c3ccc(F)c(F)c3)nc(C(N)=O)c21` reads 1050 s.
The result for `COc1cn(CC(=O)NCc2ccccc2Cl)c(CO)cc1=O` reads 564 s; that for `COc1cccc(-c2csc(-c3nnn(-c4ccc(Cl)cc4)c3N)n2)c1`, 1170 s; that for `Cc1ccc(Nc2c(-c3ccc(C(=O)O)cc3)nc3cnccn23)cc1`, 766 s.
As to `O=C1CCCc2cc(S(=O)(=O)N3CCC(C(=O)NCCc4ccccc4)CC3)ccc2N1`, the RP-LC retention time stood at 735 s.
The result for `Cc1ccc2c(Nc3cccc(Cl)c3)c(-c3nc(C)no3)cnc2n1` reads 808 s; that for `CC1CCCCN1Cc1nnc(-c2ccccc2)o1` (stereo not drawn), 597 s.
The result for `CC1CCN(C(=O)C2CC(=O)N(CCc3c[nH]c4ccc(Cl)cc34)C2)CC1` (stereo not drawn) reads 855 s.
The figure for `COc1ccc(-c2nn(Cc3ccccc3F)c(=O)c3nc(C)sc23)cc1OC` is 808 s; for `Oc1c(C(Nc2nccs2)c2ccc(F)cc2)ccc2cccnc12` (stereo not drawn) it is 654 s.
With `CCn1ccc2c(cc(C(=O)Nc3ccc(F)cc3)n2C)c1=O`, the RP-LC retention time was found to be 754 s.
The result for `O=C(CCC1CCN(c2cc(NC3CC3)ncn2)CC1)NCc1cc(F)ccc1F` reads 666 s; that for `Fc1ccc(-c2noc(CCc3nnc4ccc(N5CCN(C6CCCCC6)CC5)nn34)n2)cc1`, 653 s; that for `Cc1cccc(CNC(=O)c2cc(C(C)C)n3nccc3n2)c1`, 1310 s.
The figure for `CCOc1ccc(NS(=O)(=O)c2cc(C(=O)Nc3ccc(C)cc3)n[nH]2)cc1` is 890 s; for `CN1C(=O)c2ccccc2Sc2cc(-c3noc(CNC(=O)c4ccco4)n3)ccc21` it is 702 s.
The result for `Cc1ccc(CNC(=O)C2CCN(S(=O)(=O)c3cc(C(=O)N4CCCC4)n(C)c3)CC2)o1` reads 699 s; that for `Brc1ccc(-c2ccc(CNCC3CCNCC3)o2)cc1`, 597 s; that for `O=S(=O)(c1ccc2c(c1)CCC2)N1CCc2nc(-c3ccc(F)cc3)ncc2C1`, 1220 s.
Take `CCOc1ccccc1-n1ccn(Cc2nc(-c3cccc(OC)c3)no2)c(=O)c1=O`: the RP-LC retention time turned out to be 856 s.
The result for `COc1ccc(-c2noc(C3CCCN3C(=O)c3ccc(C)c(F)c3)n2)cc1` (stereo not drawn) reads 1040 s; that for `CC(C)CNc1ccc2nncn2n1`, 644 s; that for `c1coc(-c2nc(-c3ccc4c(c3)nnn4CCN3CCCCC3)no2)c1`, 652 s.
The figure for `O=C(NCCn1c(=O)n(Cc2ccc(F)cc2)c2cccnc21)C1CCCC1` is 782 s; for `O=C(Cn1cccc1-c1nnc(C2CC2)o1)N1CCN(c2cccc(Cl)c2)CC1` it is 944 s.
For the molecule `Cc1cccc(N2CCN(Cc3nc4nc(C)cc(N(C)C)n4n3)CC2)c1`, the RP-LC retention time is 634 s.
The result for `CC(C)c1cc(C(=O)NC2CCCCCC2)nc2ccnn12` reads 1170 s; that for `CCc1nc(-c2csc(S(=O)(=O)N3CCC(C(=O)Nc4ccc(C)cc4Cl)CC3)c2)no1`, 1080 s.
The result for `CCCN1C(=O)c2ccccc2Sc2cc(-c3noc(CNC(C)=O)n3)ccc21` reads 775 s; that for `Cc1nccn1C1CN(C(=O)Nc2ccccc2)C1`, 568 s.
The figure for `O=C(Nc1ccc2c(c1)C(=O)Nc1ccccc1O2)Oc1ccccc1` is 813 s; for `Cc1cc2c(cc1CNC(=O)c1cc3c(cc1C)OCCCO3)OCCO2` it is 846 s; for `COc1cccc(NC(=O)Nc2c(-c3ccc(F)cc3)nc3ccccn23)c1` it is 677 s.
`COc1ccccc1NC(=O)C1CCCN(c2ncnc3c2nc2n3CCCCC2)C1` (stereo not drawn) came in with an RP-LC retention time of 805 s.
The result for `Cc1ccc(NC(=O)C2=C(Nc3ccc4c(c3)n(C)c(=O)n4C)c3ccccc3S2(=O)=O)cc1` reads 902 s; that for `CCn1nc(C)c(-c2cc(C(=O)NCC3Cn4cccc4C(=O)N3C)no2)c1C` (stereo not drawn), 679 s.
The figure for `CCOc1ccc(N2CC(c3nnc(NC(=O)CCc4ccccc4)o3)CC2=O)cc1` (stereo not drawn) is 726 s; for `O=C(Cc1ccc(Cl)cc1)NCC(=O)Nc1nc2ccccc2[nH]1` it is 660 s.
